Numbered stars: 1 amine (or outer) side, 2 acyl side, 3 side chain; on linkers, the order of the positions; unused ones are H or OH. Bridge positions count the residues as written; N and C are the ends. Square brackets hold non-standard residues; d marks the D form. Peptide text beside a SMILES is read from it. * marks the point of attachment. Bip(4'-COOH) = N[C@@H](Cc1ccc(-c2ccc(C(=O)O)cc2)cc1)C(=O)O; Bip(4'-NHAc) = CC(=O)Nc1ccc(-c2ccc(C[C@H](N)C(=O)O)cc2)cc1; Phe(3-CF3) = N[C@@H](Cc1cccc(C(F)(F)F)c1)C(=O)O; Ala(morpholin-4-yl) = N[C@@H](CN1CCOCC1)C(=O)O; Phe(4-CONH2) = NC(=O)c1ccc(C[C@H](N)C(=O)O)cc1; Phe(4-COOH) = N[C@@H](Cc1ccc(C(=O)O)cc1)C(=O)O; Bip = N[C@@H](Cc1ccc(-c2ccccc2)cc1)C(=O)O; Phe(4-NH2) = Nc1ccc(C[C@H](N)C(=O)O)cc1; Phe(3-Me) = Cc1cccc(C[C@H](N)C(=O)O)c1; Glutaryl = O=C(CCCC(=O)[*:2])[*:1]; Val(3-OH) = CC(C)(O)[C@H](N)C(=O)O; X11 = CC(N)[C@H](N[*:1])C(=O)[*:2]; Ala(cPr) = N[C@@H](CC1CC1)C(=O)O; hCha = N[C@@H](CCC1CCCCC1)C(=O)O; hPhe = N[C@@H](CCc1ccccc1)C(=O)O; Cha = N[C@@H](CC1CCCCC1)C(=O)O; Carboxymethyl = O=C(O)C*; NMeA = CN[C@@H](C)C(=O)O; Nle = CCCC[C@H](N)C(=O)O; Orn = NCCC[C@H](N)C(=O)O; Dab = NCC[C@H](N)C(=O)O; Dap = NC[C@H](N)C(=O)O; X9 = O=C(CCF)*

For the first test, the target named is T1, Alexa fluor-647 labeled human PD-L1-Ig binding to Jurkat cell line over-expressing human PD-1 (Homo sapiens, UniProt Q15116).
T1 construct: expressed in transfected cells; host or cells: Jurkat
T1 sequence (Q15116 25-288): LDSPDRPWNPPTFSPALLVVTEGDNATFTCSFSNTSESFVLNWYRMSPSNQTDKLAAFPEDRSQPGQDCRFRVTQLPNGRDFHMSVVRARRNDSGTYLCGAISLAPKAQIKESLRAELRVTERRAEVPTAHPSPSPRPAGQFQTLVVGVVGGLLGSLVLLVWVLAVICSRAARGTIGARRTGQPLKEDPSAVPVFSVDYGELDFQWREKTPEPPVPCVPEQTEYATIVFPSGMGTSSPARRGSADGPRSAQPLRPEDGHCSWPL
Description: Jurkat-PD-1 Cell Binding High-Content Screening Assay (CBA): Method 3 (Alexa fluor-647 labeled PD-L1-Ig). The settings on record: Jurkat-PD-1 cells, Alexa fluor-647 labeled PD-L1-Ig 177 nM; head μM; read-out: CBA Method 3 μM. A digest of the protocol:
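Readout by high-content imaging of PFA-fixed, Hoechst-stained cells after 1 h with 177 nM (final) Alexa fluor-647 PD-L1-Ig. Compound was added first to hPD-1 Jurkat cells in RPMI plus 10% FCS for 2 h at 37 °C.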
As to `CC(C)C[C@H]1NC(=O)[C@H](C)N(C)C(=O)[C@H](Cc2ccc(C(=O)O)cc2)NC(=O)[C@H](Cc2ccc(-c3ccccc3)cc2)NC(=O)[C@H](Cc2ccc(C(=O)O)cc2)NC(=O)[C@H](Cc2cccc(C(F)(F)F)c2)NC(=O)[C@H](CC(=O)O)NC(=O)[C@H](Cc2ccc(C(=O)O)cc2)NC(=O)[C@H](CN2CCOCC2)NC(=O)CSC[C@@H](C(=O)N[C@@H](CCN)C(N)=O)NC(=O)[C@H](CNC(=O)CCF)NC(=O)[C@H](C(C)C)NC(=O)[C@H](CC2CCCCC2)NC(=O)[C@H](CCN)NC1=O` [Example 5233] ({CH2CO}-[Ala(morpholin-4-yl)][Phe(4-COOH)]D[Phe(3-CF3)][Phe(4-COOH)][Bip][Phe(4-COOH)][NMeA][dL][Dab][Cha]V[Dap](X9)C[Dab]-NH2; thioether N-14), the IC50 came out at 0.02 µM.

With `Cc1cccc(C[C@@H]2NC(=O)[C@H](CC(=O)O)NC(=O)[C@H](Cc3ccc(OCC(=O)O)cc3)NC(=O)[C@H](CC3CCCCC3)NC(=O)CSC[C@@H](C(=O)N[C@@H](CCN)C(N)=O)NC(=O)[C@H](CCCN)NC(=O)[C@H](C(C)C)NC(=O)[C@H](CC3CC3)NC(=O)[C@H](CCN)NC(=O)[C@@H](CC(C)C)NC(=O)[C@H](C)N(C)C(=O)[C@H](CCC(N)=O)NC(=O)[C@H](Cc3ccc(-c4ccccc4)cc3)NC(=O)[C@H](Cc3ccc(C(=O)O)cc3)NC2=O)c1` [Example 5192] ({CH2CO}-[Cha]Y(Carboxymethyl)D[Phe(3-Me)][Phe(4-COOH)][Bip]Q[NMeA][dL][Dab][Ala(cPr)]V[Orn]C[Dab]-NH2; thioether N-14), the IC50 was 0.15 µM.

Consider `CC(C)C[C@H]1NC(=O)[C@H](C)N(C)C(=O)[C@H](CCC(N)=O)NC(=O)[C@H](Cc2ccc(-c3ccccc3)cc2)NC(=O)[C@H](CCc2ccccc2)NC(=O)[C@H](Cc2cccc(C(F)(F)F)c2)NC(=O)[C@H](CC(=O)O)NC(=O)[C@H](CCC(N)=O)NC(=O)[C@H](CC2CCCCC2)NC(=O)CSC[C@@H](C(=O)N[C@@H](CCN)C(N)=O)NC(=O)[C@H](CCCN)NC(=O)[C@H](C(C)C)NC(=O)[C@H](CC2CCCCC2)NC(=O)[C@H](CCN)NC1=O` [Example 5246] ({CH2CO}-[Cha]QD[Phe(3-CF3)][hPhe][Bip]Q[NMeA][dL][Dab][Cha]V[Orn]C[Dab]-NH2; thioether N-14), for which the IC50 stood at 0.42 µM.

As for `CCCC[C@@H]1NC(=O)CSC[C@@H](C(=O)N[C@@H](CCN)C(N)=O)NC(=O)[C@H](CCCN)NC(=O)[C@H](C(C)C)NC(=O)[C@H](CC2CCCCC2)NC(=O)[C@H](CCN)NC(=O)[C@@H](CC(C)C)NC(=O)[C@H](C)N(C)C(=O)[C@H](CCC(N)=O)NC(=O)[C@H](Cc2ccc(-c3ccccc3)cc2)NC(=O)[C@H](Cc2ccc(C(=O)O)cc2)NC(=O)[C@H](Cc2cccc(C)c2)NC(=O)[C@H](CC(=O)O)NC(=O)[C@H](Cc2ccc(OCC(=O)O)cc2)NC1=O` [Example 5175] ({CH2CO}-[Nle]Y(Carboxymethyl)D[Phe(3-Me)][Phe(4-COOH)][Bip]Q[NMeA][dL][Dab][Cha]V[Orn]C[Dab]-NH2; thioether N-14), the IC50 was found to be 0.01 µM.

`Cc1cccc(C[C@@H]2NC(=O)[C@H](CC(=O)O)NC(=O)[C@H](Cc3ccc(OCC(=O)O)cc3)NC(=O)[C@H](CC3CCCCC3)NC(=O)CSC[C@@H](C(=O)N[C@@H](CCN)C(N)=O)NC(=O)[C@H](CCCN)NC(=O)[C@H](C(C)C)NC(=O)[C@H](CCC3CCCCC3)NC(=O)[C@H](CCN)NC(=O)[C@@H](CC(C)C)NC(=O)[C@H](C)N(C)C(=O)[C@H](CCC(N)=O)NC(=O)[C@H](Cc3ccc(-c4ccccc4)cc3)NC(=O)[C@H](Cc3ccc(C(=O)O)cc3)NC2=O)c1` [Example 5193] ({CH2CO}-[Cha]Y(Carboxymethyl)D[Phe(3-Me)][Phe(4-COOH)][Bip]Q[NMeA][dL][Dab][hCha]V[Orn]C[Dab]-NH2; thioether N-14): the IC50 came to 0.38 µM.

On to `CC(=O)Nc1ccc(-c2ccc(C[C@@H]3NC(=O)[C@H](Cc4cccc(C)c4)NC(=O)[C@H](CC(=O)O)NC(=O)[C@H](Cc4ccc(-c5ccc(C(=O)O)cc5)cc4)NC(=O)[C@H](CN4CCOCC4)NC(=O)CSC[C@@H](C(=O)N[C@@H](CCN)C(N)=O)NC(=O)[C@H](CCC(=O)O)NC(=O)[C@H](C(C)C)NC(=O)[C@H](CC4CCCCC4)NC(=O)[C@H](CC(N)=O)NC(=O)[C@@H](CC(C)C)NC(=O)[C@H](C)N(C)C(=O)[C@H](Cc4ccc(OCC(=O)O)cc4)NC(=O)[C@H](Cc4ccc(-c5ccccc5)cc4)NC3=O)cc2)cc1` [Example 5127] ({CH2CO}-[Ala(morpholin-4-yl)][Bip(4'-COOH)]D[Phe(3-Me)][Bip(4'-NHAc)][Bip]Y(Carboxymethyl)[NMeA][dL]N[Cha]VEC[Dab]-NH2; thioether N-14), for which the IC50 turned out to be 0.02 µM.

`CC(=O)Nc1ccc(-c2ccc(C[C@@H]3NC(=O)[C@H](Cc4cccc(C)c4)NC(=O)[C@H](CC(=O)O)NC(=O)[C@H](Cc4ccc(C(=O)O)cc4)NC(=O)[C@H](CC4CCCCC4)NC(=O)CSC[C@@H](C(=O)N[C@@H](CCN)C(N)=O)NC(=O)[C@H](CCC(=O)O)NC(=O)[C@H](C(C)C)NC(=O)[C@H](CC4CCCCC4)NC(=O)[C@H](CCN)NC(=O)[C@@H](CC(C)C)NC(=O)[C@H](C)N(C)C(=O)[C@H](CCC(N)=O)NC(=O)[C@H](Cc4ccc(-c5ccccc5)cc4)NC3=O)cc2)cc1` [Example 5203] ({CH2CO}-[Cha][Phe(4-COOH)]D[Phe(3-Me)][Bip(4'-NHAc)][Bip]Q[NMeA][dL][Dab][Cha]VEC[Dab]-NH2; thioether N-14): the IC50 was found to be 0.01 µM.

For `CC(C)C[C@H]1NC(=O)[C@H](C)N(C)C(=O)[C@H](Cc2ccc(C(N)=O)cc2)NC(=O)[C@H](Cc2ccc(-c3ccccc3)cc2)NC(=O)[C@H](Cc2ccc(OCC(=O)O)cc2)NC(=O)[C@H](Cc2cccc(C(F)(F)F)c2)NC(=O)[C@H](CC(=O)O)NC(=O)[C@H](Cc2ccc(C(=O)O)cc2)NC(=O)[C@H](C(C)N)NC(=O)CSC[C@@H](C(=O)N[C@@H](CCN)C(N)=O)NC(=O)[C@H](CO)NC(=O)[C@H](C(C)(C)O)NC(=O)[C@H](CC2CCCCC2)NC(=O)[C@H](CCN)NC1=O` (stereo partly drawn) [Example 5147] ({CH2CO}-[X11][Phe(4-COOH)]D[Phe(3-CF3)]Y(Carboxymethyl)[Bip][Phe(4-CONH2)][NMeA][dL][Dab][Cha][Val(3-OH)]SC[Dab]-NH2; thioether N-14), the IC50 was found to be 0.01 µM.

For `Cc1cccc(C[C@@H]2NC(=O)[C@H](CC(=O)O)NC(=O)[C@H](Cc3ccc(OCC(=O)O)cc3)NC(=O)[C@H](CC3CCCCC3)NC(=O)CSC[C@@H](C(=O)N[C@@H](CCN)C(N)=O)NC(=O)[C@H](CCCN)NC(=O)[C@H](C(C)C)NC(=O)[C@H](Cc3ccc(N)cc3)NC(=O)[C@H](CCN)NC(=O)[C@@H](CC(C)C)NC(=O)[C@H](C)N(C)C(=O)[C@H](CCC(N)=O)NC(=O)[C@H](Cc3ccc(-c4ccccc4)cc3)NC(=O)[C@H](Cc3ccc(C(=O)O)cc3)NC2=O)c1` [Example 5189] ({CH2CO}-[Cha]Y(Carboxymethyl)D[Phe(3-Me)][Phe(4-COOH)][Bip]Q[NMeA][dL][Dab][Phe(4-NH2)]V[Orn]C[Dab]-NH2; thioether N-14), the IC50 is 0.33 µM.

The test is the same for the next values; noted with them: Jurkat-PD-1 cells, Alexa fluor-647 labeled PD-L1-Ig 177 nM; nM; read-out: CBA Method 3.
For `CC(C)C[C@H]1NC(=O)[C@H](C)N(C)C(=O)[C@H](CCC(N)=O)NC(=O)[C@H](Cc2ccc(-c3ccccc3)cc2)NC(=O)[C@H](Cc2ccc(-c3ccc(C(=O)O)cc3)cc2)NC(=O)[C@H](Cc2cccc(C(F)(F)F)c2)NC(=O)[C@H](CC(=O)O)NC(=O)[C@H](Cc2ccc(C(=O)O)cc2)NC(=O)[C@H](Cc2ccc(OCC(=O)O)cc2)NC(=O)CSC[C@@H](C(=O)N[C@@H](CCN)C(N)=O)NC(=O)[C@H](CCCN)NC(=O)[C@H](C(C)C)NC(=O)[C@H](CC2CCCCC2)NC(=O)[C@H](CCN)NC1=O` [Example 5167] ({CH2CO}-Y(Carboxymethyl)[Phe(4-COOH)]D[Phe(3-CF3)][Bip(4'-COOH)][Bip]Q[NMeA][dL][Dab][Cha]V[Orn]C[Dab]-NH2; thioether N-14), the IC50 is 0.0003 µM.

Turning to `CC(C)C[C@H]1NC(=O)[C@H](C)N(C)C(=O)[C@H](CCCN)NC(=O)[C@H](Cc2ccc(-c3ccccc3)cc2)NC(=O)[C@H](Cc2ccc(-c3ccc(C(=O)O)cc3)cc2)NC(=O)[C@H](Cc2cccc(C(F)(F)F)c2)NC(=O)[C@H](CC(=O)O)NC(=O)[C@H](Cc2ccc(-c3ccc(C(=O)O)cc3)cc2)NC(=O)[C@H](Cc2ccc(OCC(=O)O)cc2)NC(=O)CSC[C@@H](C(=O)N[C@@H](CCN)C(N)=O)NC(=O)[C@H](CCC(N)=O)NC(=O)[C@H](C(C)C)NC(=O)[C@H](CC2CCCCC2)NC(=O)[C@H](CCN)NC1=O` [Example 5120] ({CH2CO}-Y(Carboxymethyl)[Bip(4'-COOH)]D[Phe(3-CF3)][Bip(4'-COOH)][Bip][Orn][NMeA][dL][Dab][Cha]VQC[Dab]-NH2; thioether N-14), the IC50 was found to be 0.0056 µM.

Turning to `CC(C)C[C@H]1NC(=O)[C@H](C)N(C)C(=O)[C@H](Cc2ccc(C(=O)O)cc2)NC(=O)[C@H](Cc2ccc(-c3ccccc3)cc2)NC(=O)[C@H](Cc2ccc(C(=O)O)cc2)NC(=O)[C@H](Cc2cccc(C(F)(F)F)c2)NC(=O)[C@H](CC(=O)O)NC(=O)[C@H](Cc2ccc(C(=O)O)cc2)NC(=O)[C@H](CN2CCOCC2)NC(=O)CSC[C@@H](C(=O)N[C@@H](CCN)C(N)=O)NC(=O)[C@H](CNC(=O)CCCC(=O)O)NC(=O)[C@H](C(C)C)NC(=O)[C@H](CC2CCCCC2)NC(=O)[C@H](CCN)NC1=O` [Example 5234] ({CH2CO}-[Ala(morpholin-4-yl)][Phe(4-COOH)]D[Phe(3-CF3)][Phe(4-COOH)][Bip][Phe(4-COOH)][NMeA][dL][Dab][Cha]V[Dap](Glutaryl)C[Dab]-NH2; thioether N-14), the IC50 is 0.0034 µM.

The values are drawn from patent publication US20240409585A1, “MACROCYCLIC IMMUNOMODULATORS” (priority 2021, published 2024).
